# From patent US20120277257A1, “Methods of Treating Diseases, Pharmaceutical Compositions, and Pharmaceutical Dosage Forms” (MYREXIS, INC., priority 2009, published 2012)
# Like-named read-outs stand apart in the source and are kept apart here.
# How the values were obtained:
# [1] = Phase I clinical trial, human plasma pharmacokinetics of oral Compound 1; type: in vivo; conditions: human, plasma, po; for Vd/F: read-out: Vz/F
# Experimental: A human clinical study was initiated at a starting dose of 50 mg/m^2. Subjects had recurrent cancer refractory to available systemic therapy. Compound 1 was administered daily by mouth in tablet form for 21 consecutive days in a 28 day cycle to each enrolled subject. […] Plasma was collected pre-dose only for cycle 1 day 8. […] Patients were men and women with metastatic cancer, ranged in age from 45 to 85 years, and received doses ranging from 50 mg/m^2 to 340 mg/m^2, with a total daily dose of 100-740 mg (Tables 2A and 2B).
# [2] = Phase I clinical trial, dose limiting toxicities; type: in vivo, human; conditions: 50 to 340 mg/m^2 oral, 1 to 13 (28-day) cycles
# Experimental: A human clinical study was initiated at a starting dose of 50 mg/m^2. Subjects had recurrent cancer refractory to available systemic therapy. Compound 1 was administered daily by mouth in tablet form for 21 consecutive days in a 28 day cycle to each enrolled subject. For determination of drug levels in humans, plasma was collected prior to drug administration and 0.5, 1, 2, 3, 4, 6, 8, and 24 hours post-dosing on cycle 1 day 1, and cycle 1 day 21. Plasma was collected pre-dose only for cycle 1 day 8. Peripheral blood mononuclear cells (PBMCs) were collected prior to drug administration, and typically 8 and 24 hours post-dose on cycle 1 day 1 and cycle 1 day 21 in order to quantify Hsp70 protein levels as an exploratory biomarker. Patients were men and women with metastatic cancer, ranged in age from 45 to 85 years, and received doses ranging from 50 mg/m^2 to 340 mg/m^2, with a total daily dose of 100-740 mg (Tables 2A and 2B).
# [3] = test system: Hsp70 protein levels in PBMCs; assay: Hsp70 protein levels in PBMCs of patients (ELISA); type: in vivo, human; conditions: 8 hours after the first dose, sustained on day 8 and day 22
# Experimental: A human clinical study was initiated at a starting dose of 50 mg/m^2. Subjects had recurrent cancer refractory to available systemic therapy. […] For determination of drug levels in humans, plasma was collected prior to drug administration and 0.5, 1, 2, 3, 4, 6, 8, and 24 hours post-dosing on cycle 1 day 1, and cycle 1 day 21. Plasma was collected pre-dose only for cycle 1 day 8.
# Hsp70 protein levels were determined by an ELISA with a Hsp 70 ELISA kit (catalog #EKS-700B, Assay Designs, Stressgen, Ann Arbor, Mich.) as per the manufacturer's protocol.
# [4] = 50 mg/m^2, Day 19, Cohort 1, Subject 101, 50 mg/m^2 (100 mg), oral daily
# [5] = 100 mg/m^2, Day 01, Cohort 2, Subject 201, 100 mg/m^2 (160 mg), oral daily
# [6] = 100 mg/m^2, Day 21, Cohort 2, 100 mg/m^2 (160 mg), oral daily
# [7] = 100 mg/m^2, Day 21, Cohort 2, Subject 201, 100 mg/m^2 (160 mg), oral daily
# [8] = 165 mg/m^2, Day 01, Cohort 3, Subject 301, 165 mg/m^2 (300 mg), oral daily
# [9] = 165 mg/m^2, Day 21, Cohort 3, 165 mg/m^2 (300 mg), oral daily
# [10] = 165 mg/m^2, Day 21, Cohort 3, Subject 301, 165 mg/m^2 (300 mg), oral daily
# [11] = 245 mg/m^2, Day 01, Cohort 4, N = 6, 245 mg/m^2 (340-540 mg), oral daily
# [12] = 340 mg/m^2, Day 01, Cohort 5, 340 mg/m^2 (480-620 mg), oral daily
# [13] = 340 mg/m^2, Day 01, Cohort 5, N = 2, 340 mg/m^2 (480-620 mg), oral daily
# [14] = 340 mg/m^2, Day 21, Cohort 5 (BID), Subject 508, 340 mg/m^2 (330 mg), oral twice daily
# [15] = 340 mg/m^2, Day 21, Cohort 5, 340 mg/m^2 (620 mg), oral daily
# [16] = 340 mg/m^2, Day 21, Cohort 5, Subject 503, 340 mg/m^2 (620 mg), oral daily
# [17] = Day 21, Cohort 4, 176-245 mg/m^2 (340-540 mg), oral daily
compound,measurement,setting,value
"C[C@H](O)C(=O)N1CCC(CCn2c(Sc3cc4c(cc3Br)OCO4)nc3c(N)ncnc32)CC1 [Compound 1, (2S)-1-[4-(2-{6-amino-8-[(6-bromo-1,3-benzodioxol-5-yl)thio]-9H-purin-9-yl}ethyl)piperidin-1-yl]-1-oxopropan-2-ol]",Cmax,[1]; [4],1700 ng/mL
same,Tmax,[1]; [4],1 h
same,half-life,[1]; [4],13.4 h
same,Cmax,[1]; [5],2950 ng/mL
same,Tmax,[1]; [5],2 h
same,half-life,[1]; [5],9.8 h
same,AUC(0-inf),[1]; [6],67.3 µg·h/mL
same,AUC(0-t),"[1]; 100 mg/m^2, Day 21, Cohort 2, 100 mg/m^2 (160 mg), oral daily, read-out: AUC(0-24)",49.8 µg·h/mL
same,Vd/F,[1]; [6],52 L
same,Cmax,[1]; [7],3180 ng/mL
same,Tmax,[1]; [7],6 h
same,half-life,[1]; [7],11.2 h
same,Cmax,[1]; [8],6870 ng/mL
same,Tmax,[1]; [8],4 h
same,half-life,[1]; [8],11.5 h
same,AUC(0-inf),[1]; [9],308 µg·h/mL
same,AUC(0-t),"[1]; 165 mg/m^2, Day 21, Cohort 3, 165 mg/m^2 (300 mg), oral daily, read-out: AUC(0-24)",200 µg·h/mL
same,Vd/F,[1]; [9],30.4 L
same,Cmax,[1]; [10],11800 ng/mL
same,Tmax,[1]; [10],8 h
same,half-life,[1]; [10],14 h
same,AUC(0-inf),"[1]; 240 mg, Day 01, Cohort 6 (BID), 240 mg, oral twice daily, based on a single 12-hour dosing interval",55 µg·h/mL
same,AUC(0-t),"[1]; 240 mg, Day 01, Cohort 6 (BID), 240 mg, oral twice daily, read-out: AUC(0-12)",38.2 µg·h/mL
same,Vd/F,"[1]; 240 mg, Day 01, Cohort 6 (BID), 240 mg, oral twice daily",39.6 L
same,AUC(0-inf),"[1]; 240 mg, Day 21, Cohort 6 (BID), 240 mg, oral twice daily, based on a single 12-hour dosing interval",95.1 µg·h/mL
same,AUC(0-t),"[1]; 240 mg, Day 21, Cohort 6 (BID), 240 mg, oral twice daily, read-out: AUC(0-12)",67.6 µg·h/mL
same,Vd/F,"[1]; 240 mg, Day 21, Cohort 6 (BID), 240 mg, oral twice daily",34.6 L
same,Cmax,[1]; [11],7840 ng/mL
same,Tmax,[1]; [11],2.5 h
same,half-life,[1]; [11],10.8 h
same,AUC(0-inf),"[1]; 340 mg/m^2, Day 01, Cohort 5 (BID), 340 mg/m^2 (270-370 mg), oral twice daily, based on a single 12-hour dosing interval",107 µg·h/mL
same,AUC(0-t),"[1]; 340 mg/m^2, Day 01, Cohort 5 (BID), 340 mg/m^2 (270-370 mg), oral twice daily, read-out: AUC(0-12)",62.1 µg·h/mL
same,Vd/F,"[1]; 340 mg/m^2, Day 01, Cohort 5 (BID), 340 mg/m^2 (270-370 mg), oral twice daily",28.4 L
same,AUC(0-inf),[1]; [12],334 µg·h/mL
same,AUC(0-t),"[1]; 340 mg/m^2, Day 01, Cohort 5, 340 mg/m^2 (480-620 mg), oral daily, read-out: AUC(0-24)",233 µg·h/mL
same,Vd/F,[1]; [12],51.4 L
same,Cmax,[1]; [13],16300 ng/mL
same,Tmax,[1]; [13],3 h
same,half-life,[1]; [13],14.1 h
same,AUC(0-inf),"[1]; 340 mg/m^2, Day 21, Cohort 5 (BID), 340 mg/m^2 (330 mg), oral twice daily, based on a single 12-hour dosing interval",96.3 µg·h/mL
same,AUC(0-t),"[1]; 340 mg/m^2, Day 21, Cohort 5 (BID), 340 mg/m^2 (330 mg), oral twice daily, read-out: AUC(0-12)",69.5 µg·h/mL
same,Vd/F,"[1]; 340 mg/m^2, Day 21, Cohort 5 (BID), 340 mg/m^2 (330 mg), oral twice daily",45.7 L
same,Cmax,[1]; [14],11000 ng/mL
same,Tmax,[1]; [14],1 h
same,half-life,[1]; [14],6.7 h
same,AUC(0-inf),[1]; [15],610 µg·h/mL
same,AUC(0-t),"[1]; 340 mg/m^2, Day 21, Cohort 5, 340 mg/m^2 (620 mg), oral daily, read-out: AUC(0-24)",363 µg·h/mL
same,Vd/F,[1]; [15],36.8 L
same,Cmax,[1]; [16],25600 ng/mL
same,Tmax,[1]; [16],1 h
same,half-life,[1]; [16],19.3 h
same,AUC(0-inf),[1]; [17],202 µg·h/mL
same,AUC(0-t),"[1]; Day 21, Cohort 4, 176-245 mg/m^2 (340-540 mg), oral daily, read-out: AUC(0-24)",127 µg·h/mL
same,Vd/F,[1]; [17],77.9 L
same,dose limiting toxicities,[2],No dose limiting toxicities have been reported to date
same,Hsp70 levels in protein extracts derived from PBMCs,[3],showed an increase
